Source: PMC2755569 (The Pediatric Infectious Disease Journal, 2009)

Key:
[1] = children dosed according to body weight-adjusted dose recommendations; cited from earlier work
[2] = 15 South African children, median dose 352 mg/m^2 equivalent to 14 mg/kg; cited from earlier work
[3] = range = 0.5- to 2.0-fold of target value; cited from earlier work
[4] = Steady-state plasma pharmacokinetics of LPV/RTV plus EFV, protocol P1058
[5] = human, in vivo
clinical = details: human, in vivo
[6] = median (range), steady state, LPV/RTV 300 mg/m^2 b.i.d. + EFV 350 mg/m^2 q.d., 15 patients

Row | Structure (SMILES) | Patients with plasma concentrations below the targeted range [1] [%] | Patients with estimated Cmin <1 mg/L [2] [%] | Target GM (range) AUC24 [3] | Target GM (range) C24 hours [3] | AUC ([4]; human, plasma, oral, 350 mg/m2, AUC24, GM (90% CI), geometric mean (90% CI), EFV 350 mg/m^2 q.d. with LPV/RTV) [ng·h/mL] | concentration at 24 h ([4]; human, plasma, oral, EstC24 hours, GM (90% CI), geometric mean (90% CI), EFV 350 mg/m^2 q.d. with LPV/RTV) [ng/mL] | CL (CL/F) [4, 6] | AUC lower compared with pediatric and adult patients [5] [%] | Cmin lower compared with pediatric and adult patients ([5]; 24 h) [%] | concentration at 12 h ([4]; human, plasma, oral, Cmin (C12 h), median (range), LPV/RTV 300 mg/m^2 b.i.d. with EFV, 15 patients) [ng/mL] | Tmax ([4]; median (range), steady state, LPV/RTV 300 mg/m^2 b.i.d. + EFV 350 mg/m^2 q.d., 15 patients, plasma) | Target GM (range) AUC12 [3] | AUC (clinical; 300 mg/m2, AUC (AUC12), GM (90% CI)) [ng·h/mL] | AUC (clinical; 300 mg/m2, AUCτ (AUC12)) [ng·h/mL]
1 | O=C1Nc2ccc(Cl)cc2[C@@](C#CC2CC2)(C(F)(F)F)O1 [EFV, efavirenz] | 64 | 40 | 64 (32–124) mg × h/L | 1.8 (0.9 –3.6) mg/L | 44100 | 800 | 8.5 (2.3–22.9) L/h | 30 | 60 |  |  |  |  | 
2 | CC(C)c1nc(CN(C)C(=O)N[C@H](C(=O)N[C@@H](Cc2ccccc2)C[C@H](O)[C@H](Cc2ccccc2)NC(=O)OCc2cncs2)C(C)C)cs1 [RTV, ritonavir] |  |  |  |  |  |  | 11.8 (2.0–264.8) L/h |  |  | 300 | 3.0 (1.0–8.1) hr |  |  | 
3 | Cc1cccc(C)c1OCC(=O)N[C@@H](Cc1ccccc1)[C@@H](O)C[C@H](Cc1ccccc1)NC(=O)[C@H](C(C)C)N1CCCNC1=O [LPV, lopinavir] |  |  |  |  |  |  |  |  |  |  |  | 80 (40 –160) mg × h/L | 91300 | 100000
